Reference: patent publication US20260042755A1, “GPR6 INVERSE AGONISTS” (MapLight Therapeutics, Inc., priority 2022, published 2026)

Tests used:
GPR6 = target: T1, GPR6 (Homo sapiens, UniProt P46095); assay: GPR6 antagonist functional cAMP assay (LANCE Ultra cAMP TR-FRET, CHO cells stably expressing GPR6); format: cell-based; settings: CHO cells stably expressing GPR6, cAMP assay
T1 construct: expressed in transfected cells; host or cells: CHO cells
Outline: (§1)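 Stable CHO-GPR6 or CHO-GPR3 cells (10,000/well) in Krebs-Ringer buffer with 0.1% BSA and 150 μM Ro 20-1724 were exposed to compounds for 45 min at 37° C (0.1% DMSO). cAMP read by LANCE Ultra TR-FRET; IC50 from 4-parameter fit normalized to DMSO and reference compounds.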

GPR3 = target: T2, GPR3 (Homo sapiens, UniProt P46089); assay: GPR3 antagonist functional cAMP assay (LANCE Ultra cAMP TR-FRET, CHO cells stably expressing GPR3); format: cell-based; settings: CHO cells stably expressing GPR3, cAMP assay
T2 construct: expressed in transfected cells; host or cells: CHO cells
Outline: as §1

T1 sequence (P46095 whole entry): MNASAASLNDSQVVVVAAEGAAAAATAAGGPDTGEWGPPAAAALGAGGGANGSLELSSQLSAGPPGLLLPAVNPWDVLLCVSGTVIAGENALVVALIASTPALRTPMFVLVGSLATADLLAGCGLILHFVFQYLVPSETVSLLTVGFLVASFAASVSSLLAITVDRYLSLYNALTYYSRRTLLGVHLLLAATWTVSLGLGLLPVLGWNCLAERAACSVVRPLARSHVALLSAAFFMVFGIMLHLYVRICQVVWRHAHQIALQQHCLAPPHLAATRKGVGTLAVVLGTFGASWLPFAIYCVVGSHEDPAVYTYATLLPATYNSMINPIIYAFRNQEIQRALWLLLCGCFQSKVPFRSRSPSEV
T2 sequence (P46089 whole entry, species assumed): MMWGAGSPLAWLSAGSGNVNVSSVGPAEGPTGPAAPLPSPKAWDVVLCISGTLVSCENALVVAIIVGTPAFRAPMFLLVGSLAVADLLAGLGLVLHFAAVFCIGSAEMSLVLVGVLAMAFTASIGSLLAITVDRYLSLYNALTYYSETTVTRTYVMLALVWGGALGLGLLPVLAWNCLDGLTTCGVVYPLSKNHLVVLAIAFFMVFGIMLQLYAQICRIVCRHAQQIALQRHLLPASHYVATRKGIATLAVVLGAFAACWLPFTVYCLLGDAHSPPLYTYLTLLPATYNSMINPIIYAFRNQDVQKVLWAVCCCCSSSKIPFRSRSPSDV

| IC50 (GPR6) [nM] | IC50 (GPR3) [nM] | SMILES |
| --- | --- | --- |
| 100 to 1000 | 1000 to 30000 | CC(=O)N1CCc2nc(N3CCC(Oc4ccc(F)cc4C#N)CC3)c(-c3cnn(C)c3)nc2C1 [Compound 497, 2-{1-[6-acetyl-3-(1-methyl-4-pyrazolyl)-5,6,7,8-tetrahydro-1,4,6-triaza-2-naphthyl]-4-piperidyloxy}-5-fluorobenzonitrile] |
| 1000 to 30000 | 1000 to 30000 | COc1ccc(OC2CCN(c3nc4c(nc3-c3cnn(C)c3)CN(C(C)=O)CC4)CC2)cn1 [Compound 498, 1-{2-[4-(6-methoxy-3-pyridyloxy)-1-piperidyl]-3-(1-methyl-4-pyrazolyl)-5,6,7,8-tetrahydro-1,4,6-triaza-6-naphthyl}-1-ethanone] |
| 100 to 1000 | ≥ 30000 | CC(=O)N1CCc2nc(N3CCC(Oc4ccccc4C#N)CC3)c(-c3cnn(C)c3)nc2C1 [Compound 499, o-{1-[6-acetyl-3-(1-methyl-4-pyrazolyl)-5,6,7,8-tetrahydro-1,4,6-triaza-2-naphthyl]-4-piperidyloxy} benzonitrile] |
| 1000 to 30000 | 1000 to 30000 | CC(=O)N1CCc2nc(N3CCC(Oc4ccc(C#N)cc4F)CC3)c(-c3cnn(C)c3)nc2C1 [Compound 500, 4-{1-[6-acetyl-3-(1-methyl-4-pyrazolyl)-5,6,7,8-tetrahydro-1,4,6-triaza-2-naphthyl]-4-piperidyloxy}-3-fluorobenzonitrile] |
| 100 to 1000 | 100 to 1000 | CC(=O)N1CCc2nc(N3CCC(Oc4ccc(C(F)(F)F)cc4F)CC3)c(-c3cnn(C)c3)nc2C1 [Compound 501, 1-(2-{4-[2-fluoro-4-(trifluoromethyl)phenoxy]-1-piperidyl}-3-(1-methyl-4-pyrazolyl)-5,6,7,8-tetrahydro-1,4,6-triaza-6-naphthyl)-1-ethanone] |
| 100 to 1000 | 1000 to 30000 | COc1ccc(OC2CCN(c3nc4c(nc3-c3cnn(C)c3)CN(C(C)=O)CC4)CC2)cc1F [Compound 502, 1-{2-[4-(3-fluoro-4-methoxyphenoxy)-1-piperidyl]-3-(1-methyl-4-pyrazolyl)-5,6,7,8-tetrahydro-1,4,6-triaza-6-naphthyl}-1-ethanone] |
| 1000 to 30000 | 1000 to 30000 | COc1cc(F)c(OC2CCN(c3nc4c(nc3-c3cnn(C)c3)CN(C(C)=O)CC4)CC2)cc1Cl [Compound 503, 1-{2-[4-(5-chloro-2-fluoro-4-methoxyphenoxy)-1-piperidyl]-3-(1-methyl-4-pyrazolyl)-5,6,7,8-tetrahydro-1,4,6-triaza-6-naphthyl}-1-ethanone] |
| 100 to 1000 | 1000 to 30000 | CCOc1ccc(OC2CCN(c3nc4c(nc3-c3cnn(C)c3)CN(C(C)=O)CC4)CC2)c(F)c1 [Compound 504, 1-{2-[4-(4-ethoxy-2-fluorophenoxy)-1-piperidyl]-3-(1-methyl-4-pyrazolyl)-5,6,7,8-tetrahydro-1,4,6-triaza-6-naphthyl}-1-ethanone] |
| 100 to 1000 | 1000 to 30000 | CC(=O)N1CCc2nc(N3CCN(Cc4cc(F)ccc4F)CC3)c(-c3cnn(C)c3)nc2C1 [Compound 505, 1-(2-{4-[(2,5-difluorophenyl)methyl]-1-piperazinyl}-3-(1-methyl-4-pyrazolyl)-5,6,7,8-tetrahydro-1,4,6-triaza-6-naphthyl)-1-ethanone] |
| 100 to 1000 | 1000 to 30000 | CC(=O)N1CCc2nc(N3CCN(Cc4cc(F)ccc4Cl)CC3)c(-c3cnn(C)c3)nc2C1 [Compound 506, 1-(2-{4-[(2-chloro-5-fluorophenyl)methyl]-1-piperazinyl}-3-(1-methyl-4-pyrazolyl)-5,6,7,8-tetrahydro-1,4,6-triaza-6-naphthyl)-1-ethanone] |
| 100 to 1000 | 1000 to 30000 | CC(=O)N1CCc2nc(N3CCN(Cc4ccccc4Cl)CC3)c(-c3cnn(C)c3)nc2C1 [Compound 507, 1-(2-{4-[(o-chlorophenyl)methyl]-1-piperazinyl}-3-(1-methyl-4-pyrazolyl)-5,6,7,8-tetrahydro-1,4,6-triaza-6-naphthyl)-1-ethanone] |
| 100 to 1000 | 1000 to 30000 | CC(=O)N1CCc2nc(N3CCN(Cc4ccccc4Br)CC3)c(-c3cnn(C)c3)nc2C1 [Compound 508, 1-(2-{4-[(o-bromophenyl)methyl]-1-piperazinyl}-3-(1-methyl-4-pyrazolyl)-5,6,7,8-tetrahydro-1,4,6-triaza-6-naphthyl)-1-ethanone] |
| ≥ 30000 | 1000 to 30000 | COc1ccccc1CN1CCN(c2nc3c(nc2-c2cnn(C)c2)CN(C(C)=O)CC3)CC1 [Compound 509, 1-(2-{4-[(o-methoxyphenyl)methyl]-1-piperazinyl}-3-(1-methyl-4-pyrazolyl)-5,6,7,8-tetrahydro-1,4,6-triaza-6-naphthyl)-1-ethanone] |
| 1000 to 30000 | 1000 to 30000 | CC(=O)N1CCc2nc(N3CCN(Cc4ccccc4C)CC3)c(-c3cnn(C)c3)nc2C1 [Compound 510, 1-[3-(1-methyl-4-pyrazolyl)-2-{4-[(o-tolyl)methyl]-1-piperazinyl}-5,6,7,8-tetrahydro-1,4,6-triaza-6-naphthyl]-1-ethanone] |
| ≥ 30000 | ≥ 30000 | CC(=O)N1CCc2nc(N3CCN(Cc4ccccn4)CC3)c(-c3cnn(C)c3)nc2C1 [Compound 511, 1-[3-(1-methyl-4-pyrazolyl)-2-{4-[(2-pyridyl)methyl]-1-piperazinyl}-5,6,7,8-tetrahydro-1,4,6-triaza-6-naphthyl]-1-ethanone] |
| 1000 to 30000 | 1000 to 30000 | CC(=O)N1CCc2nc(N3CCN(Cc4cccc(C#N)c4)CC3)c(-c3cnn(C)c3)nc2C1 [Compound 512, m-({4-[6-acetyl-3-(1-methyl-4-pyrazolyl)-5,6,7,8-tetrahydro-1,4,6-triaza-2-naphthyl]-1-piperazinyl}methyl)benzonitrile] |
| 1000 to 30000 | 1000 to 30000 | CC(=O)N1CCc2nc(N3CCC(Oc4ccc(Br)cn4)CC3)c(-c3cnn(C)c3)nc2C1 [Compound 513, 1-{2-[4-(5-bromo-2-pyridyloxy)-1-piperidyl]-3-(1-methyl-4-pyrazolyl)-5,6,7,8-tetrahydro-1,4,6-triaza-6-naphthyl}-1-ethanone] |
| 1000 to 30000 | 1000 to 30000 | CC(=O)N1CCc2nc(N3CCN(Cc4ccsc4)CC3)c(-c3cnn(C)c3)nc2C1 [Compound 514, 1-[3-(1-methyl-4-pyrazolyl)-2-{4-[(3-thienyl)methyl]-1-piperazinyl}-5,6,7,8-tetrahydro-1,4,6-triaza-6-naphthyl]-1-ethanone] |
| 1000 to 30000 | 1000 to 30000 | CC(=O)N1CCc2nc(N3CCN(Cc4cccs4)CC3)c(-c3cnn(C)c3)nc2C1 [Compound 515, 1-[3-(1-methyl-4-pyrazolyl)-2-(4-thenyl-1-piperazinyl)-5,6,7,8-tetrahydro-1,4,6-triaza-6-naphthyl]-1-ethanone] |
| 1000 to 30000 | ≥ 30000 | CC(=O)N1CCc2nc(N3CCN(Cc4cscn4)CC3)c(-c3cnn(C)c3)nc2C1 [Compound 516, 1-[3-(1-methyl-4-pyrazolyl)-2-{4-[(1,3-thiazol-4-yl)methyl]-1-piperazinyl}-5,6,7,8-tetrahydro-1,4,6-triaza-6-naphthyl]-1-ethanone] |
| ≥ 30000 | ≥ 30000 | CC(=O)N1CCc2nc(N3CCN(Cc4cccnc4)CC3)c(-c3cnn(C)c3)nc2C1 [Compound 517, 1-[3-(1-methyl-4-pyrazolyl)-2-{4-[(3-pyridyl)methyl]-1-piperazinyl}-5,6,7,8-tetrahydro-1,4,6-triaza-6-naphthyl]-1-ethanone] |
